Experimental data: paper PMC6720883, “In Vitro Inhibitory Effects of APINACA on Human Major Cytochrome P450, UDP-Glucuronosyltransferase Enzymes, and Drug Transporters” (Molecules, 2019)
Read-outs that look alike come from different tables or passages of the source.

How the values were obtained:
[1] = target: CYP2C19 (Homo sapiens, UniProt P33261); assay: Inhibition of CYP2C19-mediated [S]-mephenytoin 4′-hydroxylase in ultrapooled human liver microsomes; format: in vitro ADME
Protocol: The inhibitory potentials (IC50 values) of APINACA and typical CYP inhibitors on CYP 1A2, 2A6, 2C8, 2C9, 2C19, 2D6, and 3A4 activities in pooled human liver microsomes were evaluated following our previous method using a cocktail of CYP substrates, followed by LC–MS/MS [43]. […] After 3 min of preincubation at 37 °C, the reaction mixtures were incubated for 15 min at 37 °C with the addition of NADPH in a shaking water bath. The reaction was stopped by adding 100 μL of ice cold methanol containing internal standards (d9-1′-hydroxybufuralol for 1′-hydroxybufuralol, 4′-hydroxydiclofenac, 7-hydroxycoumarin, 1′-hydroxymidazolam, and 4′-hydroxymephenytoin; ^13C2, ^15N-acetaminophen for acetaminophen and N-desethylamodiaquine). The incubation mixtures were centrifuged at 13,000× g for 8 min at 4 °C, and 50 μL of each supernatant was diluted with 50 μL of water. Aliquots (5 μL) of the diluted supernatants were analyzed by LC–MS/MS. All assays were performed in triplicate, and the average values were used for subsequent calculations.
To measure the time-dependent inhibition, human liver microsomes were preincubated with the various concentrations of APINACA (final concentrations of 0.1−100 μM) and NADPH for 30 min at 37 °C. Next, the reaction mixtures were incubated with a seven-CYP probe substrate cocktail or bupropion for 15 min at 37 °C. […]

[2] = target: P-glycoprotein (P-gp) (Homo sapiens, UniProt P08183); assay: B to A transport of [3-H]digoxin in LLC-PK1-MDR1 cells
Sequence of P-glycoprotein (P-gp) (P08183 whole entry): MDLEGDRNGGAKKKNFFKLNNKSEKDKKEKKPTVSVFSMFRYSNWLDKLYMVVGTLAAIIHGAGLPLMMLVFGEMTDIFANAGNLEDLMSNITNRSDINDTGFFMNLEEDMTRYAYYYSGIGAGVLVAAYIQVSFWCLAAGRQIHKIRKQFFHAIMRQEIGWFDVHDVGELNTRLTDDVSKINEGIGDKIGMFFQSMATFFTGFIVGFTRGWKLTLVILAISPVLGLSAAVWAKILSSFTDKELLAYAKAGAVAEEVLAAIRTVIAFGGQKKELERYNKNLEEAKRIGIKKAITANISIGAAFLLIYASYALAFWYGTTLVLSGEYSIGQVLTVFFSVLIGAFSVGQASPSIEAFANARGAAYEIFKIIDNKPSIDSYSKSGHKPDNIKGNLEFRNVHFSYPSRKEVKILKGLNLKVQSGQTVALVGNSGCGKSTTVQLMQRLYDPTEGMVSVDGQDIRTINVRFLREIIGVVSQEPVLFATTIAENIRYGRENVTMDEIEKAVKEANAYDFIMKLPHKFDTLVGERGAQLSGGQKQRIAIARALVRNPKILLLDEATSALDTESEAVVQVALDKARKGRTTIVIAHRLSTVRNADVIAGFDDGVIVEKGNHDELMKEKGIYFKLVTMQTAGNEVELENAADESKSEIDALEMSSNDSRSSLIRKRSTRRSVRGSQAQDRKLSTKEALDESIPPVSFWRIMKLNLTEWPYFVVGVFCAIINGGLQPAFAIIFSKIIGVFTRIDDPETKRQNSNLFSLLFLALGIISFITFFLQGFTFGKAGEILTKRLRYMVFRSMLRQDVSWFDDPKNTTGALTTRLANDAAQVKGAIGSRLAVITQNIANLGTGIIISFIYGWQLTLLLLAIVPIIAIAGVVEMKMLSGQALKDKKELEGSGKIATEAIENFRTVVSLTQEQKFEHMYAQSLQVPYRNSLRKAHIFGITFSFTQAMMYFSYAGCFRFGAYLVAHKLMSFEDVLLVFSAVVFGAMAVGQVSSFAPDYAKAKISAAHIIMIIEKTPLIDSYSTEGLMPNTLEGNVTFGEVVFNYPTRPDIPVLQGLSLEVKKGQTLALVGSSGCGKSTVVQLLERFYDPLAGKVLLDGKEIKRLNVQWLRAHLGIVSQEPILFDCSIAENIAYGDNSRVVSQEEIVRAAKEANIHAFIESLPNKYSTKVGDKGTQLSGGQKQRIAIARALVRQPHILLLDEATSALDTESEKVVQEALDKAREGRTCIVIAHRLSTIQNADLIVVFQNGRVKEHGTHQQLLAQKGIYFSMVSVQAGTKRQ
Protocol: The cells were seeded onto filter membranes at a density of 2 × 10^5 cells/well for 5 days with TEER values over 450 Ω·cm^2. The B to A transport of 0.1 μM [3-H]digoxin in LLC-PK1-MDR1 cells was measured by adding 1.5 mL of HBSS containing APINACA (final concentrations of 0–100 μM) on the basal side and by adding 0.5 mL of HBSS without APINACA on the apical side of the insert using protocols identical to those described above.
1.1 (Systat Software, Inc.).

Measured: IC50

Sequence of CYP2C19 (P33261 whole entry): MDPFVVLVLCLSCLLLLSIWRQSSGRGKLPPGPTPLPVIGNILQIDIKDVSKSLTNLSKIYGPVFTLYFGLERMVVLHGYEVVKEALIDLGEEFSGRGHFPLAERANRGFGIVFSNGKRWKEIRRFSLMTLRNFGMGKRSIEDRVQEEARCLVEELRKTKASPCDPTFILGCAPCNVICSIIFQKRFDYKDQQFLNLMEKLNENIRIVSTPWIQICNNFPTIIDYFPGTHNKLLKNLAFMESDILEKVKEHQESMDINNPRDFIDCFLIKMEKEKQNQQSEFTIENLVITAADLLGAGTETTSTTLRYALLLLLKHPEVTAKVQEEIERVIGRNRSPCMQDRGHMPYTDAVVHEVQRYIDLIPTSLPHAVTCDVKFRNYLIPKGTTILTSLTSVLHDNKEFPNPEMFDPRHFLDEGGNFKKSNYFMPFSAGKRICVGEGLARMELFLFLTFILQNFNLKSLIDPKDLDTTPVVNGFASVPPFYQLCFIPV

CCCCCn1nc(C(=O)NC23CC4CC(CC(C4)C2)C3)c2ccccc21 [APINACA, N-(1-adamantyl)-1-pentyl-1H-indazole-3-carboxamide]
> 100 µM: [1] | [1]; read-out: IC50 (μM) With Preincubation, CYP2C19 [S]-mephenytoin 4′-hydroxylase, ultrapooled human liver microsomes, 30-min preincubation with NADPH | [2]
